{"source": "the supplement of paper PMC10307832", "experiment_in_all_cases": "relative viability (nuclei count vs DMSO), 5 days (fraction); higher = more cells survive", "key": {"[1]": {"system": "NCI-H3122", "method_in_brief": "(§1)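 A single step with final 0.05% Triton X-100, 1% formaldehyde and 1 ug/ml Hoechst fixed the cells and stained nuclei 5 days after treatment. Lung cancer cell lines in 1536-well plates had been treated by pin tool the day after seeding with one drug alone or a fixed anchor-drug dose plus five library-drug doses (not always all listed) in √10 steps, and nuclei were counted on 4× images. Relative viability is the ratio of nuclei in treated wells to nuclei in vehicle wells, taken as the median of duplicate plates.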"}, "[2]": {"system": "NCI-H2228", "method_in_brief": "as §1"}, "[3]": {"system": "NCI-H322M", "method_in_brief": "as §1"}, "[4]": {"system": "CAL-12T", "method_in_brief": "as §1"}, "[5]": {"system": "SK-LU-1", "method_in_brief": "as §1"}, "[6]": {"system": "LCLC-97TM1", "method_in_brief": "as §1"}, "[7]": {"system": "LCLC-103H", "method_in_brief": "as §1"}, "[8]": {"system": "HCC-44", "method_in_brief": "as §1"}, "[9]": {"system": "NCI-H1793", "method_in_brief": "as §1"}, "[10]": {"system": "NCI-H2087", "method_in_brief": "as §1"}, "[11]": {"system": "NCI-H647", "method_in_brief": "as §1"}, "[12]": {"system": "201T", "method_in_brief": "as §1"}, "[13]": {"system": "RERF-LC-KJ", "method_in_brief": "as §1"}, "[14]": {"system": "LXF-289", "method_in_brief": "as §1"}, "[15]": {"system": "HCC-827", "method_in_brief": "as §1"}, "[16]": {"system": "NCI-H1650", "method_in_brief": "as §1"}, "[17]": {"system": "NCI-H1437", "method_in_brief": "as §1"}, "[18]": {"system": "NCI-H727", "method_in_brief": "as §1"}, "[19]": {"system": "BEN", "method_in_brief": "as §1"}, "[20]": {"system": "NCI-H1395", "method_in_brief": "as §1"}, "[21]": {"system": "NCI-H1944", "method_in_brief": "as §1"}, "[22]": {"system": "NCI-H2405", "method_in_brief": "as §1"}, "[23]": {"system": "HOP-62", "method_in_brief": "as §1"}}, "data": [{"smiles": "O=C(O)c1ccc(-c2c[nH]c3ncc(-c4ccccc4)cc23)cc1C1CCCC1", "note": "+ CS(=O)(=O)N1CCN(Cc2cc3nc(-c4cccc5[nH]ncc45)nc(N4CCOCC4)c3s2)CC1 [Pictilisib] (partner 1 µM)", "values": [{"measurement": "relative viability", "setting": "[1]; first compound 0.04 µM", "result": 0.565}, {"measurement": "relative viability", "setting": "[1]; first compound 0.1265 µM", "result": 0.683}, {"measurement": "relative viability", "setting": "[1]; first compound 0.4 µM", "result": 0.619}, {"measurement": "relative viability", "setting": "[1]; first compound 1.265 µM", "result": 0.574}, {"measurement": "relative viability", "setting": "[2]; first compound 0.04 µM", "result": 0.58}, {"measurement": "relative viability", "setting": "[2]; first compound 0.1265 µM", "result": 0.549}, {"measurement": "relative viability", "setting": "[2]; first compound 0.4 µM", "result": 0.26}, {"measurement": "relative viability", "setting": "[2]; first compound 1.265 µM", "result": 0.274}, {"measurement": "relative viability", "setting": "[3]; first compound 0.04 µM", "result": 0.564}, {"measurement": "relative viability", "setting": "[3]; first compound 0.1265 µM", "result": 0.526}, {"measurement": "relative viability", "setting": "[3]; first compound 0.4 µM", "result": 0.487}, {"measurement": "relative viability", "setting": "[3]; first compound 1.265 µM", "result": 0.482}, {"measurement": "relative viability", "setting": "[4]; first compound 0.04 µM", "result": 0.478}, {"measurement": "relative viability", "setting": "[4]; first compound 0.1265 µM", "result": 0.696}, {"measurement": "relative viability", "setting": "[4]; first compound 0.4 µM", "result": 0.494}, {"measurement": "relative viability", "setting": "[4]; first compound 1.265 µM", "result": 0.448}, {"measurement": "relative viability", "setting": "[5]; first compound 0.04 µM", "result": 0.559}, {"measurement": "relative viability", "setting": "[5]; first compound 0.1265 µM", "result": 0.604}, {"measurement": "relative viability", "setting": "[5]; first compound 0.4 µM", "result": 0.538}, {"measurement": "relative viability", "setting": "[5]; first compound 1.265 µM", "result": 0.418}, {"measurement": "relative viability", "setting": "[6]; first compound 0.04 µM", "result": 0.228}, {"measurement": "relative viability", "setting": "[6]; first compound 0.1265 µM", "result": 0.183}, {"measurement": "relative viability", "setting": "[6]; first compound 0.4 µM", "result": 0.192}, {"measurement": "relative viability", "setting": "[6]; first compound 1.265 µM", "result": 0.17}, {"measurement": "relative viability", "setting": "[7]; first compound 0.04 µM", "result": 0.631}, {"measurement": "relative viability", "setting": "[7]; first compound 0.1265 µM", "result": 0.693}, {"measurement": "relative viability", "setting": "[7]; first compound 0.4 µM", "result": 0.57}, {"measurement": "relative viability", "setting": "[7]; first compound 1.265 µM", "result": 0.632}, {"measurement": "relative viability", "setting": "[8]; first compound 0.04 µM", "result": 0.697}, {"measurement": "relative viability", "setting": "[8]; first compound 0.1265 µM", "result": 0.676}, {"measurement": "relative viability", "setting": "[8]; first compound 0.4 µM", "result": 0.668}, {"measurement": "relative viability", "setting": "[8]; first compound 1.265 µM", "result": 0.56}, {"measurement": "relative viability", "setting": "[9]; first compound 0.04 µM", "result": 0.387}, {"measurement": "relative viability", "setting": "[9]; first compound 0.1265 µM", "result": 0.43}, {"measurement": "relative viability", "setting": "[9]; first compound 0.4 µM", "result": 0.308}, {"measurement": "relative viability", "setting": "[9]; first compound 1.265 µM", "result": 0.336}, {"measurement": "relative viability", "setting": "[10]; first compound 0.04 µM", "result": 0.963}, {"measurement": "relative viability", "setting": "[10]; first compound 0.1265 µM", "result": 1.09}, {"measurement": "relative viability", "setting": "[10]; first compound 0.4 µM", "result": 0.758}, {"measurement": "relative viability", "setting": "[10]; first compound 1.265 µM", "result": 0.712}, {"measurement": "relative viability", "setting": "[11]; first compound 0.04 µM", "result": 0.418}, {"measurement": "relative viability", "setting": "[11]; first compound 0.1265 µM", "result": 0.38}, {"measurement": "relative viability", "setting": "[11]; first compound 0.4 µM", "result": 0.478}, {"measurement": "relative viability", "setting": "[11]; first compound 1.265 µM", "result": 0.344}, {"measurement": "relative viability", "setting": "[12]; first compound 0.04 µM", "result": 0.695}, {"measurement": "relative viability", "setting": "[12]; first compound 0.1265 µM", "result": 0.619}, {"measurement": "relative viability", "setting": "[12]; first compound 0.4 µM", "result": 0.608}, {"measurement": "relative viability", "setting": "[12]; first compound 1.265 µM", "result": 0.656}, {"measurement": "relative viability", "setting": "[13]; first compound 0.04 µM", "result": 0.487}, {"measurement": "relative viability", "setting": "[13]; first compound 0.1265 µM", "result": 0.594}, {"measurement": "relative viability", "setting": "[13]; first compound 0.4 µM", "result": 0.503}, {"measurement": "relative viability", "setting": "[13]; first compound 1.265 µM", "result": 0.501}, {"measurement": "relative viability", "setting": "[14]; first compound 0.04 µM", "result": 0.762}, {"measurement": "relative viability", "setting": "[14]; first compound 0.1265 µM", "result": 0.869}, {"measurement": "relative viability", "setting": "[14]; first compound 0.4 µM", "result": 0.645}, {"measurement": "relative viability", "setting": "[14]; first compound 1.265 µM", "result": 0.404}, {"measurement": "relative viability", "setting": "[15]; first compound 0.04 µM", "result": 1.12}, {"measurement": "relative viability", "setting": "[15]; first compound 0.1265 µM", "result": 1.12}, {"measurement": "relative viability", "setting": "[15]; first compound 0.4 µM", "result": 0.965}, {"measurement": "relative viability", "setting": "[15]; first compound 1.265 µM", "result": 0.859}, {"measurement": "relative viability", "setting": "[16]; first compound 0.04 µM", "result": 0.585}, {"measurement": "relative viability", "setting": "[16]; first compound 0.1265 µM", "result": 0.585}, {"measurement": "relative viability", "setting": "[16]; first compound 0.4 µM", "result": 0.556}, {"measurement": "relative viability", "setting": "[16]; first compound 1.265 µM", "result": 0.381}, {"measurement": "relative viability", "setting": "[17]; first compound 0.04 µM", "result": 0.489}, {"measurement": "relative viability", "setting": "[17]; first compound 0.1265 µM", "result": 0.446}, {"measurement": "relative viability", "setting": "[17]; first compound 0.4 µM", "result": 0.371}, {"measurement": "relative viability", "setting": "[17]; first compound 1.265 µM", "result": 0.263}, {"measurement": "relative viability", "setting": "[18]; first compound 0.04 µM", "result": 0.363}, {"measurement": "relative viability", "setting": "[18]; first compound 0.1265 µM", "result": 0.403}, {"measurement": "relative viability", "setting": "[18]; first compound 0.4 µM", "result": 0.654}, {"measurement": "relative viability", "setting": "[18]; first compound 1.265 µM", "result": 0.354}, {"measurement": "relative viability", "setting": "[19]; first compound 0.04 µM", "result": 0.546}, {"measurement": "relative viability", "setting": "[19]; first compound 0.1265 µM", "result": 0.609}, {"measurement": "relative viability", "setting": "[19]; first compound 0.4 µM", "result": 0.584}, {"measurement": "relative viability", "setting": "[19]; first compound 1.265 µM", "result": 0.555}, {"measurement": "relative viability", "setting": "[20]; first compound 0.04 µM", "result": 0.769}, {"measurement": "relative viability", "setting": "[20]; first compound 0.1265 µM", "result": 0.691}, {"measurement": "relative viability", "setting": "[20]; first compound 0.4 µM", "result": 0.625}, {"measurement": "relative viability", "setting": "[20]; first compound 1.265 µM", "result": 0.555}, {"measurement": "relative viability", "setting": "[21]; first compound 0.04 µM", "result": 0.359}, {"measurement": "relative viability", "setting": "[21]; first compound 0.1265 µM", "result": 0.338}, {"measurement": "relative viability", "setting": "[21]; first compound 0.4 µM", "result": 0.309}, {"measurement": "relative viability", "setting": "[21]; first compound 1.265 µM", "result": 0.35}, {"measurement": "relative viability", "setting": "[22]; first compound 0.04 µM", "result": 0.458}, {"measurement": "relative viability", "setting": "[22]; first compound 0.1265 µM", "result": 0.543}, {"measurement": "relative viability", "setting": "[22]; first compound 0.4 µM", "result": 0.383}, {"measurement": "relative viability", "setting": "[22]; first compound 1.265 µM", "result": 0.408}, {"measurement": "relative viability", "setting": "[23]; first compound 0.04 µM", "result": 1.05}, {"measurement": "relative viability", "setting": "[23]; first compound 0.1265 µM", "result": 0.884}, {"measurement": "relative viability", "setting": "[23]; first compound 0.4 µM", "result": 0.686}, {"measurement": "relative viability", "setting": "[23]; first compound 1.265 µM", "result": 0.66}]}]}
